Key:
[1] = test system: imiquimod-induced psoriasis on the back; assay: Mouse model of imiquimod-induced psoriasis on the back; assay type: in vivo; settings: for The gain of the thickness of the back skin to the thickness before the start of the study: 0.3% ointment, M ± m, n = 10
Procedure: Psoriasis was simulated in female balb/c mice by applying Aldar cream (5% imiquimod) on a previously shaved skin back area of 3×4 cm daily 1 time per day for 15 days (J Immunol. 2009 May 1; 182(9):5836-45). Intact animals were applied with vaseline: 120 mg per the shaved back area.
The assessment of the development of pathology was performed on the 10th, 12th, 13th and 15th day before the next application of Aldar cream according to the index: the thickness of the skin fold on the back. The thickness of the skin fold on the back was measured with a Digimatic MK-25 micrometer (Mitutoyo, Japan).

[2] = target: T1, serotonin receptors 5-HT2B (Homo sapiens, UniProt P41595); assay: Activity of serotonin receptors 5-HT2B, CHO cells; assay type: cell-based; settings: antagonist, serotonin agonist (30 nM)
T1 construct: expressed in transfected cells; host or cells: CHO cells
Procedure: Compound 1 was dissolved in DMSO to a concentration of 100 mM; then a stock solution was serially diluted with DMSO. The maximum starting concentration of the substance is 100 μM. The effect was determined at 5 concentrations of the tested compounds, each concentration was studied twice. CHO cells expressing serotonin receptors 5-HT2B were used in the experiment, these cells, after preincubation with a serotonin agonist (30 nM), were incubated with the test compound. The activity of receptors was determined according to the intracellular calcium concentration of phosphatidylinositol by the homogeneous time resolved fluorescence spectroscopy (Br J Pharmacol. 1999 September; 128(1):13-20).

[3] = Stability in blood plasma, guinea pig; assay type: in vitro ADME; settings: for Content, % from the initial, Mean (n = 2): guinea pig blood plasma, 1 μM, 37° C.
Procedure: (§1) Compound 1 at a concentration of 1 μM was incubated for 24 hours in the blood plasma of human and various animal species (rats, mice, guinea pigs, rabbits, horses, dogs, bull, pygmy hogs) at 37° C. Aliquots were taken at time points of 0, 0.25, 1, 2, 4, 8 and 24 hours. In the case of blood plasma of rabbits and monkeys, Compound 1 was incubated for 4 hours, and aliquots were taken at time points 0, 0.25, 1, 4. After the protein precipitation with acetonitrile, samples were analyzed by HPLC-MS/MS to determine the concentration of Compound 1. Verapamil was used as a stable control.

[4] = target: T2, bradykinin receptors B1 (BRDKB1) (Homo sapiens, UniProt P46663); assay: Activity of bradykinin receptor BRDKB1, intracellular calcium, CHO cells; assay type: cell-based; settings: antagonist, LysdesArg9-BK agonist (3 nM)
T2 construct: expressed in transfected cells; host or cells: CHO cells
T2 sequence (P46663 1-353): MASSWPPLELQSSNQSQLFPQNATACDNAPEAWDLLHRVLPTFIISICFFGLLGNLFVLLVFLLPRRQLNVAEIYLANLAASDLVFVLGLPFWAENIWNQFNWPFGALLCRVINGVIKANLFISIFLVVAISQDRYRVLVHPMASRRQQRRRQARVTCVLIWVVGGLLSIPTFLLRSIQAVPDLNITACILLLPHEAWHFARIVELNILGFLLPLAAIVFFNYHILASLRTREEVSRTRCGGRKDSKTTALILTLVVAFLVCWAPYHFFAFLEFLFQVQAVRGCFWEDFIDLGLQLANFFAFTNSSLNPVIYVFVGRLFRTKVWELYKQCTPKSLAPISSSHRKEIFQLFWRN
Procedure: Compound 1 was dissolved in DMSO to a concentration of 100 mM; then a stock solution was serially diluted with DMSO. The maximum starting concentration of the substance is 100 μM. The effect was determined at 5 concentrations of the tested compounds, each concentration was studied twice. CHO cells expressing bradykinin receptors B1 were used in the experiment, these cells, after preincubation with a LysdesArg9-BK agonist (3 nM), were incubated with the test compound. The activity of receptors was determined according to the intracellular calcium concentration by fluorescence spectroscopy (Eur J Pharmacol. 2000 Mar. 24; 392(1-2):1-9).

[5] = Stability in blood plasma, mouse; assay type: in vitro ADME; settings: for Content, % from the initial, Mean (n = 2): mouse blood plasma, 1 μM, 37° C.
Procedure: as §1

[6] = test system: imiquimod-induced ear psoriasis; assay: Mouse model of imiquimod-induced ear psoriasis; assay type: in vivo, female balb/c mice; settings: for The gain in the thickness of the right (affected) ear relatively day 0: 0.3% ointment, M ± m, n = 10
Procedure: Psoriasis was simulated in female balb/c mice by applying Aldar cream (5% imiquimod) on the inner side of the right ear daily 1 time per day for 10 days (J Immunol. 2009 May 1; 182(9):5836-45). Vaseline was applied to intact animals: 20 mg on the right ear.
The assessment of the development of pathology was performed on 2nd, 4th, 6th, 8th and 10th day before the next application of Aldar cream by measuring the thickness of the left and right ears.

[7] = test system: diarrhea induced by castor oil; assay: Mouse model of diarrhea induced by castor oil; assay type: in vivo, Balb/c mice
Procedure: Balb/c mice, which starved for 24 hours, were given castor oil intragastrically. Then the animals were encaged into individual cages with a bottom covered with white paper, and time before the onset of diarrhea was noted. The observation time is 4 hours (J Pharm Pharmacol. 2015 February; 67(2):244-54).

T1 sequence (P41595 whole entry): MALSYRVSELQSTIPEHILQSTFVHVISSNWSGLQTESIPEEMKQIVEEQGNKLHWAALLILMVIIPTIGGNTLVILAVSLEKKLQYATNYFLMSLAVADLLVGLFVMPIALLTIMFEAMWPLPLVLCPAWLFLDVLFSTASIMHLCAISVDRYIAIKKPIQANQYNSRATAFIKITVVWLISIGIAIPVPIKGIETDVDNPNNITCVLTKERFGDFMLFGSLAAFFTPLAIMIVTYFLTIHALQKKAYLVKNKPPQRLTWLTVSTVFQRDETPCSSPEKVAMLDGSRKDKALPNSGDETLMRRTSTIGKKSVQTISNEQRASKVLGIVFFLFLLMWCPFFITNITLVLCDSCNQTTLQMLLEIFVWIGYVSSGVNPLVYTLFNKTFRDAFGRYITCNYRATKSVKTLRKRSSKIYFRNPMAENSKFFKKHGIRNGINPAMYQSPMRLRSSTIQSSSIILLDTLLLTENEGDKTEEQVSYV

O=C(Cc1ccc(O)cc1)N[C@@H](Cc1ccccc1)C(=O)OCc1ccccc1 [Compound 1, benzyl (2S)-2-[2-(4-hydroxyphenyl)acetamido]-3-phenylpropanoate]
The gain of the thickness of the back skin to the thickness before the start of the study ([1]; day 10): 23.1% | The gain of the thickness of the back skin to the thickness before the start of the study ([1]; day 12): 19.9% | The gain of the thickness of the back skin to the thickness before the start of the study ([1]; day 13): 20.5% | The gain of the thickness of the back skin to the thickness before the start of the study ([1]; day 15): 22.4% | reduction of the gain of the thickness of the skin fold of the affected skin area ([1]; summary of table 2): 2 times | IC50 [2]: 8.9 µM | hydrolysis in the blood plasma (in words) ([3]; blood plasma of guinea pigs, after 15 minutes): almost completely hydrolyzed | Content, % from the initial, Mean (n = 2) ([3]; 0 hour): 100% | Content, % from the initial, Mean (n = 2) ([3]; 0.25 hour): 0.00% | Content, % from the initial, Mean (n = 2) ([3]; 1 hour): 0.00% | Content, % from the initial, Mean (n = 2) ([3]; 2 hour): 0.00% | Content, % from the initial, Mean (n = 2) ([3]; 4 hour): 0.00% | Content, % from the initial, Mean (n = 2) ([3]; 8 hour): 0.00% | Content, % from the initial, Mean (n = 2) ([3]; 24 hour): 0.00% | IC50 [4]: 3.7 µM | hydrolysis in the blood plasma (in words) ([5]; blood plasma of mice, after 15 minutes): almost completely hydrolyzed | Content, % from the initial, Mean (n = 2) ([5]; 0 hour): 100% | Content, % from the initial, Mean (n = 2) ([5]; 0.25 hour): 0.00% | Content, % from the initial, Mean (n = 2) ([5]; 1 hour): 0.00% | Content, % from the initial, Mean (n = 2) ([5]; 2 hour): 0.00% | Content, % from the initial, Mean (n = 2) ([5]; 4 hour): 0.00% | Content, % from the initial, Mean (n = 2) ([5]; 8 hour): 0.00% | Content, % from the initial, Mean (n = 2) ([5]; 24 hour): 0.00% | The gain in the thickness of the right (affected) ear relatively day 0 ([6]; day 2): 14.1% | The gain in the thickness of the right (affected) ear relatively day 0 ([6]; day 4): 22.1% | The gain in the thickness of the right (affected) ear relatively day 0 ([6]; day 6): 28.0% | The gain in the thickness of the right (affected) ear relatively day 0 ([6]; day 8): 19.4% | The gain in the thickness of the right (affected) ear relatively day 0 ([6]; day 10): 7.9% | reduction of the gain in the thickness of the right (affected) ear (in words) ([6]; summary of table 1): to the level of intact animals | The time of onset of diarrhea ([7]; 50 mg/kg, M ± m, n = 10, observation 4 hours): 42.00 ± 3.43& min | increase of the time to the onset of diarrhea ([7]; summary of Table 6): 2 times
